# Assay results taken from patent US7012041B2, “Phenylpyridazinones” (Bayer AG, priority 1995, dated 2006).
# How the values were obtained:
# Assay type in all cases: in vivo
# [1] = test system: Chenopodium; assay: Pre-emergence test/greenhouse; conditions: after three weeks
# Procedure: (§1) • Solvent: 5 parts by weight of acetone • Emulsifier: 1 part by weight of alkylaryl polyglycol ether
# (§2) To produce a suitable preparation of active compound, 1 part by weight of active compound is mixed with the stated amount of solvent, the stated amount of emulsifier is added and the concentrate is diluted with water to the desired concentration.
# (§3) Seeds of the test plants are sown in normal soil. After 24 hours, the soil is watered or sprayed with the preparation of the active compound. It is advantageous to keep the amount of water per unit area constant. The concentration of the active compound in the preparation is immaterial, only the amount of active compound applied per unit area matters.
# (§4) After three weeks, the degree of damage to the plants is rated in % damage by comparison with the development of the untreated control.
# (§5) The figures denote: • 0%=no effect (like untreated control) • 100%=total destruction
# [2] = test system: Sunflower; assay: Pre-emergence test/greenhouse; conditions: after three weeks
# Procedure: as §1, §2, §3, §4, §5
# [3] = test system: Abutilon; assay: Pre-emergence test/greenhouse; conditions: for % damage Abutilon: after three weeks; for activity against Abutilon (% damage): application rate between 125 and 500 g/ha, span over the named compounds
# Procedure: as §1, §2, §3, §4, §5
# [4] = test system: Maize; assay: Pre-emergence test/greenhouse; conditions: after three weeks
# Procedure: as §1, §2, §3, §4, §5
# [5] = test system: Galinsoga; assay: Pre-emergence test/greenhouse; conditions: after three weeks
# Procedure: as §1, §2, §3, §4, §5
# [6] = test system: Solanum; assay: Pre-emergence test/greenhouse; conditions: after three weeks
# Procedure: as §1, §2, §3, §4, §5
# [7] = test system: Chenopodium; assay: Post-emergence test/greenhouse; conditions: after three weeks
# Procedure: as §1, §2
# (§6) Test plants which have a height of 5–15 cm are sprayed with the preparation of the active compound in such a way as to apply the particular amounts of active compound desired per unit area.
# as §4, §5
# [8] = test system: Amaranthus; assay: Post-emergence test/greenhouse; conditions: after three weeks
# Procedure: as §1, §2, §6, §4, §5
# [9] = test system: Wheat; assay: Post-emergence test/greenhouse; conditions: after three weeks
# Procedure: as §1, §2, §6, §4, §5
# [10] = test system: Veronica; assay: Post-emergence test/greenhouse; conditions: after three weeks
# Procedure: as §1, §2, §6, §4, §5
# [11] = test system: Polygonum; assay: Post-emergence test/greenhouse; conditions: after three weeks
# Procedure: as §1, §2, §6, §4, §5
# [12] = test system: Datura; assay: Post-emergence test/greenhouse; conditions: after three weeks
# Procedure: as §1, §2, §6, §4, §5
Compound,% damage Sunflower ([2]; 250 g ai/ha) [%],% damage Abutilon ([3]; 250 g ai/ha) [%],activity against Abutilon (% damage) [3] [%],% damage Maize ([4]; 250 g ai/ha) [%],% damage Galinsoga ([5]; 250 g ai/ha) [%],% damage Solanum ([6]; 250 g ai/ha) [%],% damage Chenopodium ([7]; 60 g ai/ha) [%],% damage Amaranthus ([8]; 60 g ai/ha) [%],% damage Wheat ([9]; 60 g ai/ha) [%],% damage Veronica ([10]; 60 g ai/ha) [%],% damage Polygonum ([11]; 60 g ai/ha) [%],% damage Datura ([12]; 60 g ai/ha) [%],% damage Chenopodium ([1]; 500 g ai/ha) [%],% damage Sunflower ([2]; 500 g ai/ha) [%],% damage Abutilon ([3]; 500 g ai/ha) [%],% damage Maize ([4]; 500 g ai/ha) [%],% damage Solanum ([6]; 500 g ai/ha) [%],further results
"C#CC(C)Oc1cc(-n2ncc(C)cc2=O)c(F)cc1C#N (centres unmarked) [Example 8, 2-(2-fluoro-4-cyano-5-but-1-ine-3-yl-oxy-phenyl)-5-methyl-pyridazin-3-one]",0,100,100,0,100,100,95,90,0,100,100,100,–,–,–,–,–,% damage Chenopodium ([1]; 250 g ai/ha): 100%
"Cc1cnn(-c2cc(F)c(C#N)cc2F)c(=O)c1 [Example 3, 2-(2,5-difluoro-4-cyano-phenyl)-5-methyl-pyridazin-3-one]",0,100,100,0,100,90,–,–,–,–,–,–,–,–,–,–,–,–
CCS(=O)(=O)Nc1cc(-n2nc(C)ccc2=O)c(F)cc1C#N [Example 15],–,–,100,–,–,–,–,–,–,–,–,–,100,0,100,0,95,% damage Galinsoga ([5]; 500 g ai/ha): 80%; % damage Chenopodium ([7]; 250 g ai/ha): 95%; % damage Amaranthus ([8]; 250 g ai/ha): 100%; % damage Wheat ([9]; 250 g ai/ha): 5%; % damage Veronica ([10]; 250 g ai/ha): 95%; % damage Polygonum ([11]; 250 g ai/ha): 80%; % damage Datura ([12]; 250 g ai/ha): 90%
"Nc1cnn(-c2ccccc2)c(=O)c1Cl [(A), 5-Amino-4-chloro-2-phenyl-pyridazin-3-one, reference compound]",–,–,–,–,–,–,–,–,–,–,–,–,50,100,20,0,40,–
C#CC(C)Oc1cc(-n2nc(C)ccc2=O)c(F)cc1C#N (centres unmarked) [Example 16],–,–,100,–,–,–,95,100,5,90,95,100,100,20,100,10,100,% damage Galinsoga ([5]; 500 g ai/ha): 100%
CCS(=O)(=O)Nc1cc(-n2ncc(C)cc2=O)c(F)cc1C#N [Example 31],0,100,100,0,80,100,80,100,5,90,90,100,–,–,–,–,–,–
C#CC(CC)Oc1cc(-n2ncc(C)cc2=O)c(F)cc1C#N (centres unmarked) [Example 35],–,100,100,0,100,100,95,95,20,95,90,100,–,–,–,–,–,% damage Chenopodium ([1]; 250 g ai/ha): 100%
